# Experimental data published in patent US7001926B2, “Tubulin binding agents and corresponding prodrug constructs” (Oxigene, Inc., priority 2000, dated 2006).
# pIC50: −log10 of the molar value. Read-outs that look alike come from different tables or passages of the source.
# Tests used:
# [1] = test system: murine hemangioendothelioma MHEC-5T cell line; assay: In vitro antiproliferative activity, MTT assay; type: cell-based
# Protocol: The following compounds were tested for in vitro antiproliferative activity against the murine hemangioendothelioma MHEC-5T cell line using a standard MTT assay (see Mosman, J. Immunol. Methods, 1983). In actively proliferating cells, an increase in MTT conversion is spectrophotometrically quantified by the reduction of MTT (3-[4,5-dimethylthiazol-2-yl]-2,5-diphenyl tetrazolium bromide) to the insoluble formazan dye by enzymes associated with metabolic activity. A compound with growth inhibitory activity will cause a reduction in dye formation relative to cells exposed to a vehicle control.
# [2] = test system: MHEC-5T hemangioendothelioma tumor; assay: Inhibition of tumor blood flow, Fluorescent Bead Assay; type: in vivo, SCID mice; settings: for % VAPM (vessel area per tumor tissue area as a percentage of the control) / % VNPM (vessel number per tumor tissue area as a percentage of the control): 24 hours post-treatment
# Protocol: The antivascular effects of the C-5 dihydronaphthalene phosphate prodrug Oxi-com 197, 43 was assessed in tumor-bearing mice using a Fluorescent Bead Assay. A MHEC-5T hemangioendothelioma tumor model was established by subcutaneous injection of 0.5×10^6 cultured transformed cell murine myocardial vascular endothelial cell line (“MHEC5-T”) cells into the right flank of Fox Chase CB-17 Severe Combined Immunodeficient (“SCID”) mice. When transplanted tumors reached a size of 500 mm^3 (a size without development of necrosis), the mice received a single intraperitoneal (i.p.) injection of saline control or compound at doses ranging from 3.2 to 25 mg/kg. At 24 hours post-treatment, mice were injected intravenously with 0.25 ml of diluted FluoSphere beads (1:6 in physiological saline) in the tail vein, sacrificed after 3 minutes, and tumor was excised for cryosectioning. Tumor cryosections at a thickness of 8 um were directly examined using quantitative fluorescent microscopy. Blood vessels were indicated by blue fluorescence from injected beads. For quantification, image analysis of 3 sections from three tumors treated in each group were examined and vascular shutdown was expressed as vessel area (mm^2) per tumor tissue area (mm^2) as a percentage of the control (“% VAPM”) and as vessel number per tumor tissue area (mm^2) as a percentage of the control (“% VNPM”). The results as shown in Table 11 indicate a clear dose-dependent effect of the agent on tumor blood flow as indicated by the reduction in blood vessel number and vessel area. Administration of a 25 mg/kg dose of Oxi-com 197 was particularly effective, causing a 90% reduction in tumor vessel number relative to the control.
# Additional compounds of the present invention were tested for antivascular effects at two dosages (100 mg/kg and 10 mg/kg) using the same Fluorescent Bead Assay as in the previous experiment.
# [3] = test system: DU-145; assay: Growth inhibition, DU-145 prostate cancer cell line (SRB); type: cell-based, human; settings: 48 hours
# Protocol: (§1) Briefly, the cell suspensions, diluted according to the particular cell type and the expected target cell density (5,000–40,000 cells per well based on cell growth characteristics), were added by pipet (100 μl) to 96-well microtiter plates. Inoculates were allowed a preincubation time of 24–28 hours at 37° C. for stabilization. Incubation with the inhibitor compounds lasted for 48 hours in 5% CO2 atmosphere and 100% humidity. Determination of cell growth was performed by in situ fixation of cells, followed by staining with a protein-binding dye sulforhodamine B (SRB), which binds to the basic amino acids of cellular macromolecules. The solubilized stain was measured spectrophotometrically.
# (§2) Several compounds were evaluated for cytotoxic activity against […] P388 leukemia cell lines. […] These and additional compounds were evaluated in terms of growth inhibitory activity against several other human cancer cell lines including: central nervous system (“CNS”, SF-295), pancreas (BXPC-3), non-small cell lung cancer (“lung-NSC”, NCI-H460), breast (MCF-7), colon (KM20L2), and prostate (DU-145).
# [4] = test system: NCI-H460; assay: Growth inhibition, NCI-H460 non-small cell lung cancer cell line (SRB); type: cell-based, human; settings: lung-NSC, 48 hours
# Protocol: as §1, §2
# [5] = test system: KM20L2; assay: Growth inhibition, KM20L2 colon cancer cell line (SRB); type: cell-based, human; settings: 48 hours
# Protocol: as §1, §2
# [6] = test system: SF-295; assay: Growth inhibition, SF-295 CNS cancer cell line (SRB); type: cell-based, human; settings: 48 hours
# Protocol: as §1, §2
# [7] = test system: BXPC-3; assay: Growth inhibition, BXPC-3 pancreas cancer cell line (SRB); type: cell-based, human; settings: 48 hours
# Protocol: as §1, §2
# [8] = test system: MDA-MB-231 human breast adenocarcinoma; assay: Tumor growth control in vivo; design: species or system SCID mice
# Protocol: The antitumor activity of C-5 dihydronaphthalene phosphate prodrug, Oxi-com 197, was assessed in tumor-bearing mice by measuring its effects on tumor volume in comparison with CA4P. A human breast adenocarcinoma model was established by subcutaneous injection of cultured MDA-MB-231 cells in Fox Chase CB-17 SCID mice. When the average tumor size reached 50–100 mm^3, mice were randomly divided into several groups (n=10) with no significant difference in body weight and tumor size. Mice were administered CA4P or Oxi-com 197 in saline carrier at doses of 25, 50 or 100 mg/kg by daily intraperitoneal (i.p.) injection for 5 consecutive days (Q1×5). Saline carrier only was used as the control treatment. On Day 3, 7, 10, 13, 17 and 23, tumors were excised from animals in each treatment group (n=2) and measured by width and length. Tumor volume was calculated according to the following formula: Length×Width^2×0.4. The dosage effects of Oxi-com 197 is illustrated in FIG. 14.
# [9] = test system: MCF-7; assay: Growth inhibition, MCF-7 breast cancer cell line (SRB); type: cell-based, human; settings: 48 hours
# Protocol: as §1, §2
# [10] = test system: tubulin; assay: Inhibition of tubulin polymerization assay; type: biochemical; settings: read-out: IC50, In Vitro Inhibition of Tubulin Polymerization; purified bovine brain tubulin, 15 min preincubation at 37° C.
# Protocol: IC50 values for tubulin polymerization were determined according to a previously described procedure (Bai et al, Cancer Research, 1996). Purified tubulin is obtained from bovine brain cells as described in Hamel and Lin (Hamel and Lin, Biochemistry, 1984). Various amounts of inhibitor were preincubated for 15 minutes at 37° C. with purified tubulin. After the incubation period, the reaction was cooled and GTP was added to induce tubulin polymerization. Polymerization was then monitored in a Gilford spectrophotometer at 350 nm. The final reaction mixtures (0.25 ml) contained 1.5 mg/ml tubulin, 0.6 mg/ml microtubule-associated proteins (MAPs), 0.5 mM GTP, 0.5 mM MgCl2, 4% DMSO and 0.1M 4-morpholineethanesulfonate buffer (MES, pH 6.4).
# [11] = 5 days, read-out: IC50 at 5 days
# [12] = read-out: IC50 at 1 hour, 1 hour
smiles,measurement,setting,value
COc1ccc(OC)c(C2=CCCc3c2ccc(OC)c3O)c1 [Oxi-com 240],pIC50,[1]; [11],7.52
same,pIC50,[1]; [12],5.10
COc1cc(C(=O)C2=CCCc3c2ccc(OC)c3OP(=O)([O-])[O-])cc(OC)c1OC.[Na+].[Na+] [Oxi-com 224],pIC50,[1]; [11],8.52
same,pIC50,[1]; [12],6.40
same,% VAPM at 10 mg/kg dose,[2],17%
same,% VAPM at 100 mg/kg dose,[2],46%
COc1cc(C2=CCCc3c2ccc(OC)c3OP(=O)([O-])[O-])cc(OC)c1OC.[Na+].[Na+] [Oxi-com 197],GI50 for Cell Line DU-145,[3],0.0055 µg/mL
same,GI50 for Cell Line NCI-H460,[4],0.011 µg/mL
same,GI50 for Cell Line KM20L2,[5],0.33 µg/mL
same,GI50 for Cell Line SF-295,[6],0.0033 µg/mL
same,pIC50,[1]; [11],8.52
same,pIC50,[1]; [12],7.00
same,GI50 for Cell Line BXPC-3,[7],0.28 µg/mL
same,tumor growth (tumor volume) relative to control treatment,"[8]; 25, 50, and 100 mg/kg i.p. daily for 5 days (Q1×5)",significantly inhibited tumor growth
same,antitumor activity relative to CA4P,"[8]; MDA-MB-231 model, i.p. Q1×5",enhanced antitumor activity relative to CA4P
same,% VAPM (vessel area per tumor tissue area as a percentage of the control),[2]; 6.3 mg/kg single i.p.,65.4 ± 4.9%
same,% VNPM (vessel number per tumor tissue area as a percentage of the control),[2]; 6.3 mg/kg single i.p.,66.5 ± 0.5%
same,% VAPM (vessel area per tumor tissue area as a percentage of the control),[2]; 12.5 mg/kg single i.p.,32.2 ± 6.8%
same,% VNPM (vessel number per tumor tissue area as a percentage of the control),[2]; 12.5 mg/kg single i.p.,55.5 ± 0.8%
same,reduction in tumor vessel number relative to the control,[2]; 25 mg/kg dose,90%
same,% VAPM (vessel area per tumor tissue area as a percentage of the control),[2]; 25 mg/kg single i.p.,13.0 ± 5.0%
same,% VNPM (vessel number per tumor tissue area as a percentage of the control),[2]; 25 mg/kg single i.p.,10.4 ± 6.3%
same,GI50 for Cell Line MCF-7,[9],0.0045 µg/mL
COc1ccc(OC)c(C2=CCCc3c2ccc(OC)c3OP(=O)(O)O)c1 [Oxi-com 241],pIC50,[1]; [11],7.10
same,pIC50,[1]; [12],5.60
COc1cc(C2=CCCc3c2cc(O)c(OC)c3O)cc(OC)c1OC [Oxi-com 200],pIC50,[1]; [11],4.79
same,pIC50,[1]; [12],< 4.30
COc1cc2c(cc1O)C(c1cc(OC)c(OC)c(OC)c1)=CCC2 [Oxi-com 158],GI50 for Cell Line DU-145,[3],3.4 µg/mL
same,GI50 for Cell Line NCI-H460,[4],3.2 µg/mL
same,GI50 for Cell Line KM20L2,[5],2.6 µg/mL
same,GI50 for Cell Line SF-295,[6],5.4 µg/mL
same,GI50 for Cell Line BXPC-3,[7],1.8 µg/mL
same,GI50 for Cell Line MCF-7,[9],1.5 µg/mL
COc1ccc(C2=CCCc3c2ccc(OC)c3OP(=O)(O)O)c(OC)c1 [Oxi-com 239],pIC50,[1]; [11],7.22
same,pIC50,[1]; [12],5.62
COc1cc(C(=O)c2cccc3c(OP(=O)([O-])[O-])c(OC)ccc23)cc(OC)c1OC.[Na+].[Na+] [Oxi-com 225],pIC50,[1]; [11],8.30
same,pIC50,[1]; [12],6.40
same,% VAPM at 10 mg/kg dose,[2],35%
same,% VAPM at 100 mg/kg dose,[2],60%
COc1cc(C2=CCCc3c2cc(OP(=O)(O)O)c(OC)c3OP(=O)(O)O)cc(OC)c1OC [Oxi-com 199],pIC50,[1]; [11],< 4.35
same,pIC50,[1]; [12],< 4.35
same,pIC50,[10],< 4.40
COc1ccc(C2=CCCc3c2ccc(OC)c3O)c(OC)c1 [Oxi-com 238],pIC50,[1]; [11],7.40
same,pIC50,[1]; [12],4.85
"CCOP(=O)(Nc1c(OC)ccc2c1CCC=C2c1cc(OC)c(OC)c(OC)c1)OCC [Oxi-com 143, 6-methoxy-1-(3′,4′,5′-trimethoxyphenyl)-5-diethylphosphoramidate-3,4-dihydronapthalene]",pIC50,[10],< 4.40
COc1ccc(C2=CCCc3c2ccc(OC)c3OP(=O)(O)O)cc1OC [Oxi-com 243],pIC50,[1]; [11],6.52
same,pIC50,[1]; [12],4.70
COc1ccc2c(c1NC(=O)[C@@H](N)CO)CCC=C2c1cc(OC)c(OC)c(OC)c1 [Oxi-com 229],pIC50,[1]; [11],< 5.85
same,pIC50,[1]; [12],< 4.36
